{"source": "patent US20260256721A1", "about": "“ANTI-COCCIDIAL COMPOSITION COMPRISING QUINIC ACID AND USES THEREOF” (priority 2023, published 2026)", "key": {"[1]": {"tested_on": "Eimeria maxima protozoa (sporozoites)", "assay": "Direct killing effect against Eimeria maxima protozoa (live sporozoites counted by microscopy)", "type": "cell-based", "conditions": "3 h, read-out: Mortality rate of Eimeria maxima orozites [Killed sporozoites %]", "text": "(§1) A certain amount of oocysts (eggs) of Eimeria tenella and Eimeria maxima protozoa (College of Veterinary Medicine, Gyeongsang National University, Korea) were put in a tube containing glass beads and crushed, and then, in order to remove crushed oocyst cell walls and other debris, internal sporocysts were purified using Percoll density gradient, and washed with a PBS solution. For excystation of internal sporozoites, reagents comprising sodium taurocholic acid (sigma aldirich, USA) and trypsin (Ginco, USA), respectively, were treated to Eimeria tenella and Eimeria maxima sporangia and they were incubated, and then washed with PBS (Phosphate-Buffered Saline) solution once and the protozoa were obtained.\n(§2) Then, the mortality rate (%) was measured when each substance was treated compared to a negative control group to which PBS was treated, and the result is shown in Table 3 below."}, "[2]": {"tested_on": "Eimeria tenella protozoa (sporozoites)", "assay": "microbe, parasite or virus in culture", "type": "cell-based", "text": "as §1\nQuinic acid (Sigma, Cas No. 77-95-2) at concentrations ranging from 0 to 1000 ppm was reacted with Eimeria tenella oocysts at 40° C. for 3 hours. Following this, only live protozoa (sporozoites) were counted by microscopy. The mortality rate (%) of the protozoa was measured for each substance treatment compared to the negative control group treated with PBS. The results, as shown in FIG. 1 and Table 2, confirmed the anti-coccidial efficacy of quinic acid depending on the concentration.\nas §2\nAfter reacting 0.1% (v/v) DMSO, quinic acid, chlorogenic acid, theogallin, and cryptochlorogenic acid, respectively, with Eimeria tenella protozoa at a concentration of 10 ppm at 40° C. for 3 hours, only living protozoa (sporozoites) were counted by microscopy. Then, the mortality rate (%) was measured when each substance was treated compared to a negative control group to which PBS was treated, and the result is shown in Table 5 below.\nThe Eimeria tenella protozoa were killed by treating the quinic acid or sugarcane extract up to 1000 ppm concentration at maximum, and the minimal treatment concentration showing a mortality rate of 50% or more against Eimeria tenella protozoa was shown in Table 6 below."}, "[3]": {"conditions": "Eimeria tenella, 3 h, read-out: Mortality rate of Eimeria tenella orozites [Killed sporozoites %]"}, "[4]": {"conditions": "Eimeria tenella, 3 h, read-out: Mortality rate of Eimeria tenella sporozites [Killed sporozoites %]"}, "[5]": {"conditions": "Eimeria tenella, each substance treated up to 1000 ppm, minimum concentration with mortality rate of 50% or higher, x not defined (Table 4)"}, "[6]": {"conditions": "Eimeria tenella, 3 h, read-out: The mortality rate"}}, "note": "Like-named read-outs stand apart in the source and are kept apart here."}
{"molecule": "O=C(O)/C=C/c1ccc(O)c(O)c1", "note": "[Caffeic acid, caffeic acid, reference compound]", "values": [{"measurement": "mortality at 10 ppm", "setting": "[1]", "result": 0, "unit": "%"}, {"measurement": "mortality at 10 ppm", "setting": "[2]; [3]", "result": 0, "unit": "%"}]}
{"molecule": "O=C(/C=C/c1ccc(O)c(O)c1)O[C@@H]1C[C@](O)(C(=O)O)C[C@@H](O)[C@H]1O", "note": "[Chlorogenic acid, chlorogenic acid, reference compound]", "values": [{"measurement": "mortality at 10 ppm", "setting": "[1]", "result": 0, "unit": "%"}, {"measurement": "mortality at 10 ppm", "setting": "[2]; [3]", "result": 0, "unit": "%"}, {"measurement": "mortality at 10 ppm", "setting": "[2]; [4]", "result": 0, "unit": "%"}, {"measurement": "Minimum Dose for killed 50% sporozoite", "setting": "[2]; [5]", "result": 500, "unit": "ppm"}]}
{"molecule": "O=C(/C=C/c1ccc(O)c(O)c1)O[C@H]1[C@H](O)C[C@](O)(C(=O)O)C[C@H]1O", "note": "[Cryptochlorogenic acid, cryptochlorogenic acid, reference compound]", "values": [{"measurement": "Mortality rate of Eimeria tenella sporozites [Killed sporozoites %]", "setting": "[2]; 10 ppm, 40° C., 3 hours, compared to PBS negative control (Table 5)", "result": 0, "unit": "%"}]}
{"molecule": "COc1cc(/C=C/C(=O)O)ccc1O", "note": "[Ferulic acid, ferulic acid, reference compound]", "values": [{"measurement": "mortality at 10 ppm", "setting": "[1]", "result": 0, "unit": "%"}, {"measurement": "mortality at 10 ppm", "setting": "[2]; [3]", "result": 0, "unit": "%"}]}
{"molecule": "O=C(O)[C@]1(O)C[C@@H](O)[C@@H](O)[C@H](O)C1", "note": "[Quinic acid, quinic acid]", "values": [{"measurement": "mortality at 10 ppm", "setting": "[1]", "result": 34, "unit": "%"}, {"measurement": "mortality at 10 ppm", "setting": "[2]; [3]", "result": 32, "unit": "%"}, {"measurement": "mortality at 10 ppm", "setting": "[2]; [4]", "result": 32, "unit": "%"}, {"measurement": "mortality at 0.78 ppm", "setting": "[2]; [6]", "result": 7.4, "unit": "%"}, {"measurement": "mortality at 1.56 ppm", "setting": "[2]; [6]", "result": 14.9, "unit": "%"}, {"measurement": "mortality at 3.125 ppm", "setting": "[2]; [6]", "result": 20.2, "unit": "%"}, {"measurement": "mortality at 6.25 ppm", "setting": "[2]; [6]", "result": 25.5, "unit": "%"}, {"measurement": "mortality at 12.5 ppm", "setting": "[2]; [6]", "result": 31.9, "unit": "%"}, {"measurement": "mortality at 25 ppm", "setting": "[2]; [6]", "result": 35.1, "unit": "%"}, {"measurement": "mortality at 50 ppm", "setting": "[2]; [6]", "result": 55.3, "unit": "%"}, {"measurement": "mortality at 100 ppm", "setting": "[2]; [6]", "result": 59.6, "unit": "%"}, {"measurement": "mortality at 250 ppm", "setting": "[2]; [6]", "result": 91.5, "unit": "%"}, {"measurement": "mortality at 500 ppm", "setting": "[2]; [6]", "result": 97.9, "unit": "%"}, {"measurement": "mortality at 1000 ppm", "setting": "[2]; [6]", "result": 100, "unit": "%"}, {"measurement": "Minimum Dose for killed 50% sporozoite", "setting": "[2]; [5]", "result": 50, "unit": "ppm"}, {"measurement": "Minimum Dose for killed 50% sporozoite", "setting": "[2]; Eimeria tenella, treated up to 1000 ppm at maximum, minimal concentration with mortality rate of 50% or more (Table 6)", "result": 50, "unit": "ppm"}]}
{"molecule": "O=C(O)/C=C/c1cccc(O)c1", "note": "[m-coumaric acid, reference compound]", "values": [{"measurement": "mortality at 10 ppm", "setting": "[1]", "result": 6.4, "unit": "%"}, {"measurement": "mortality at 10 ppm", "setting": "[2]; Eimeria tenella, 10 ppm, 40° C., 3 hours, compared to PBS negative control (Table 3), read-out: Mortality rate of Eimeria tenella orozites [Killed sporozoites %]", "result": 10.7, "unit": "%"}, {"measurement": "Minimum Dose for killed 50% sporozoite", "setting": "[2]; [5]", "result": 500, "unit": "ppm"}]}
